Measurements reported in publication PMC4303209, “A novel phosphatidylinositol 3-kinase (PI3K) inhibitor directs a potent FOXO-dependent, p53-independent cell cycle arrest phenotype characterized by the differential induction of a subset of FOXO-regulated genes” (Breast Cancer Research : BCR, 2014).

Tested on: MCF-7 breast cancer cells
Assay: Microarray gene expression analysis (Agilent whole human genome 4 x 44K; compound vs DMSO, LIMMA log2 fold change)
Assay type: cell-based
Settings: Apoptosis genes

Cn1ncc2c(N3CCOCC3)nc(-c3cccc(O)c3)nc21 [ETP-45658]
CTNNA1 log2FC (Gene 1495): 0.398
CTNNB1 log2FC (Gene 1499): 0.236
CTSB log2FC (Gene 1508): -0.231
CTSH log2FC (Gene 1512): -0.192
CTSL log2FC (Gene 1514): 0.446
CX3CR1 log2FC (Gene 1524): 0.181
CYLD log2FC (Gene 1540): 0.499
DAB2 log2FC (Gene 1601): -0.232
DAD1 log2FC (Gene 1603): -0.542
DAP log2FC (Gene 1611): -0.178
DAPK1 log2FC (Gene 1612): 0.238
DAPK3 log2FC (Gene 1613): -0.132
DBH log2FC (Gene 1621): -0.059
DCC log2FC (Gene 1630): 0.044
GADD45A log2FC (Gene 1647): -0.416
DDIT3 log2FC (Gene 1649): 2.364
DDX3X log2FC (Gene 1654): -1.156
DDX5 log2FC (Gene 1655): -0.656
DFFA log2FC (Gene 1676): -0.316
DFNA5 log2FC (Gene 1687): 0.156
DHCR24 log2FC (Gene 1718): -0.643
DHODH log2FC (Gene 1723): -0.210
NQO1 log2FC (Gene 1728): 0.303
DLX1 log2FC (Gene 1745): -0.429
DNASE1 log2FC (Gene 1773): 0.250
DNASE1L3 log2FC (Gene 1776): -0.141
DNASE2 log2FC (Gene 1777): 0.536
DOCK1 log2FC (Gene 1793): 0.462
DPEP1 log2FC (Gene 1800): -0.068
ATN1 log2FC (Gene 1822): -0.501
DSG1 log2FC (Gene 1828): -0.456
DSG2 log2FC (Gene 1829): 0.346
DSG3 log2FC (Gene 1830): -0.092
TSC22D3 log2FC (Gene 1831): 0.689
DSP log2FC (Gene 1832): 0.613
DUSP1 log2FC (Gene 1843): -0.931
DUSP2 log2FC (Gene 1844): -2.124
DUSP6 log2FC (Gene 1848): -2.175
E2F1 log2FC (Gene 1869): -0.356
E2F2 log2FC (Gene 1870): -0.581
ECT2 log2FC (Gene 1894): 1.058
EDN1 log2FC (Gene 1906): 0.169
EDNRA log2FC (Gene 1909): -0.061
EDNRB log2FC (Gene 1910): -0.075
EEF1A2 log2FC (Gene 1917): -0.382
EFNA5 log2FC (Gene 1946): -0.086
EGFR log2FC (Gene 1956): 0.311
EGR1 log2FC (Gene 1958): -3.897
EGR2 log2FC (Gene 1959): -0.340
EPHA2 log2FC (Gene 1969): -2.195
EIF5A log2FC (Gene 1984): -0.137
ENDOG log2FC (Gene 2021): -0.357
EP300 log2FC (Gene 2033): -0.215
EPHA7 log2FC (Gene 2045): -0.083
CLN8 log2FC (Gene 2055): -0.161
EPO log2FC (Gene 2056): -0.146
ERBB3 log2FC (Gene 2065): 0.557
ERBB4 log2FC (Gene 2066): 0.141
ERCC2 log2FC (Gene 2068): -0.566
ERCC3 log2FC (Gene 2071): -0.084
ERCC5 log2FC (Gene 2073): 0.896
ERCC6 log2FC (Gene 2074): 0.369
ERN1 log2FC (Gene 2081): -0.168
ESR1 log2FC (Gene 2099): -0.121
ESR2 log2FC (Gene 2100): -0.067
ETS1 log2FC (Gene 2113): -0.590
EYA2 log2FC (Gene 2139): -0.248
F2R log2FC (Gene 2149): 0.260
F3 log2FC (Gene 2152): -0.164
PTK2B log2FC (Gene 2185): 0.101
FCER1G log2FC (Gene 2207): -0.662
FGD1 log2FC (Gene 2245): -0.405
FGF4 log2FC (Gene 2249): -0.171
FGF8 log2FC (Gene 2253): -0.131
FGF10 log2FC (Gene 2255): 0.033
FGFR1 log2FC (Gene 2260): -0.387
FGFR3 log2FC (Gene 2261): -0.382
FGFR2 log2FC (Gene 2263): 1.543
FHIT log2FC (Gene 2272): -0.370
FHL2 log2FC (Gene 2274): -0.173
FOXC1 log2FC (Gene 2296): -0.876
FOXC2 log2FC (Gene 2303): -0.613
FLT3 log2FC (Gene 2322): 0.165
FLT4 log2FC (Gene 2324): -0.341
FNTA log2FC (Gene 2339): 1.051
FXN log2FC (Gene 2395): -0.579
FRZB log2FC (Gene 2487): 0.110
FYN log2FC (Gene 2534): -0.127
G6PD log2FC (Gene 2539): -0.236
GABRA5 log2FC (Gene 2558): 0.036
GABRB2 log2FC (Gene 2561): -0.066
GABRB3 log2FC (Gene 2562): 0.054
GAS1 log2FC (Gene 2619): 0.711
GAS2 log2FC (Gene 2620): 0.183
GATA1 log2FC (Gene 2623): -0.041
GATA3 log2FC (Gene 2625): -0.140
GDNF log2FC (Gene 2668): 0.348
B4GALT1 log2FC (Gene 2683): 0.129
GJA1 log2FC (Gene 2697): -0.390
GCLC log2FC (Gene 2729): 1.033
GLI3 log2FC (Gene 2737): 0.306
GLO1 log2FC (Gene 2739): 0.300
GML log2FC (Gene 2765): -0.233
GNB1 log2FC (Gene 2782): -0.075
GNGT1 log2FC (Gene 2792): 0.035
GNRH1 log2FC (Gene 2796): 0.243
SFN log2FC (Gene 2810): -1.182
GPLD1 log2FC (Gene 2822): -0.136
CXCR3 log2FC (Gene 2833): -0.730
GRK5 log2FC (Gene 2869): 0.091
MKNK2 log2FC (Gene 2872): -0.750
GPX1 log2FC (Gene 2876): 0.224
GRID2 log2FC (Gene 2895): -0.054
GRIK2 log2FC (Gene 2898): 0.090
GRIK5 log2FC (Gene 2901): -0.286
GRIN1 log2FC (Gene 2902): -0.518
GRIN2A log2FC (Gene 2903): -0.037
NR3C1 log2FC (Gene 2908): 1.303
GRM4 log2FC (Gene 2914): -0.041
PDIA3 log2FC (Gene 2923): -0.131
GSK3A log2FC (Gene 2931): -0.246
GSK3B log2FC (Gene 2932): -0.607
GSN log2FC (Gene 2934): -0.206
GSTP1 log2FC (Gene 2950): 0.120
MSH6 log2FC (Gene 2956): 0.235
GZMH log2FC (Gene 2999): -0.228
GZMA log2FC (Gene 3001): -0.081
GZMB log2FC (Gene 3002): -0.203
GZMM log2FC (Gene 3004): -0.523
H1F0 log2FC (Gene 3005): 0.826
HCK log2FC (Gene 3055): -0.046
HDAC1 log2FC (Gene 3065): -0.487
HDAC2 log2FC (Gene 3066): 0.164
HELLS log2FC (Gene 3070): 0.388
NCKAP1L log2FC (Gene 3071): 0.079
HGF log2FC (Gene 3082): -0.369
NRG1 log2FC (Gene 3084): -1.147
HIC1 log2FC (Gene 3090): -0.118
HIF1A log2FC (Gene 3091): 0.141
HIP1 log2FC (Gene 3092): -0.264
HINT1 log2FC (Gene 3094): 0.229
HK2 log2FC (Gene 3099): -1.193
HMGB1 log2FC (Gene 3146): 0.513
HMGB2 log2FC (Gene 3148): 1.232
HMGCR log2FC (Gene 3156): 0.305
HMOX1 log2FC (Gene 3162): 1.167
NR4A1 log2FC (Gene 3164): -0.616
HOXA5 log2FC (Gene 3202): 0.402
HOXA13 log2FC (Gene 3209): 0.081
HRAS log2FC (Gene 3265): -0.664
HRG log2FC (Gene 3273): 0.066
PRMT2 log2FC (Gene 3275): 0.361
HSPA1A log2FC (Gene 3303): -2.764
HSPA5 log2FC (Gene 3309): -0.358
HSPB1 log2FC (Gene 3315): -0.158
HSP90AA1 log2FC (Gene 3320): 1.066
HSP90AB1 log2FC (Gene 3326): -0.153
